In patent US5981256A, “Recombinant stratum corneum chymotryptic enzyme (SCCE)” (priority 1993, dated 1999):
Square brackets hold non-standard residues; d marks the D form. Peptide text beside a SMILES is read from it. * marks the point of attachment. Sta = CC(C)C[C@H](N)[C@@H](O)CC(=O)O; Isovaleryl = CC(C)CC(=O)*

Tests used:
[1] = target: proteinase associated with plantar stratum corneum cells (native human stratum corneum chymotryptic enzyme, SCCE) (Homo sapiens, UniProt P49862); test: Hydrolysis of S-2586 by the proteinase associated with plantar stratum corneum cells (suspended cells); details: for Activity (%) (±SD, n = 3), hydrolysis of S-2586: pH 8, control = 100
plantar stratum corneum [2] = test: Cell release (cell shedding) from plantar stratum corneum in vitro; type: cell-based; details: Homo sapiens, 16 hours at 37° C., mean and SD for five tissue pieces
Protocol: A method to quantify the cell shedding was then developed, which allowed studies on the effects of various parameters such as temperature, pH, and enzyme inhibitors. Cylinders of plantar stratum corneum with diameter 3 mm were prepared with a biopsy punch from flakes of tissue taken and freed from loosely attached surface cells as described above in 1.1. […] The remaining tissue was removed and placed in fresh media for continued incubation. Tubes with released cells were centrifuged for 2 min at 5000 g to collect the cells. The cell pellets were washed once with 0.5 ml of phosphate buffered saline and then treated at 60° C. for 1.5 hours with 0.6 ml of 1 M sodium hydroxide. The alkali soluble protein was quantified according to Lowry et al., 1951, and taken as a measure of the amount of released cells.

[3] = target: T1, 25 kD caseinolytic enzyme of plantar corneocytes (native stratum corneum chymotryptic enzyme, SCCE) (Homo sapiens, UniProt P49862); test: Zymography (SDS-PAGE with co-polymerized casein) of extracts of plantar corneocytes; type: biochemical; details: pH 8
T1 construct: from tissue; host or cells: human plantar stratum corneum, dissociated corneocytes (suspended cells, SDS-extract or KCl-extract)
Protocol: C: The effect of inhibitors. sc=SDS-extract of plantar corneocytes; c=bovine chymotrypsin; t=bovine trypsin. The inhibitors were present during pretreatment with Triton X-100 and the subsequent incubation. […] Leupeptin and chymostatin were added as solutions in dimethylsulphoxide (DMSO). Buffer for pretreatment and incubation=0.1 M Tris-HCl pH 8 with final concentration of DMSO 1% (v/v). Other conditions as in A.
SDS-PAGE and Coomassie blue-staining (A) and zymography after SDS-PAGE with co-polymerized casein (B) of fractions 2, 6, and 10 from the chromatogram shown in FIG. 10. Molecular weight markers to the left.
Therefore experiments with zymography were performed. For this reason KCl extracts of corneocytes were prepared for electrophoresis according to Laemmli (Laemmli 1970) but with no reducing agent in the sample buffer and with no heating of the samples. Samples were also prepared by means of extraction of dissociated plantar corneocytes with Laemmli's sample buffer without reducing agent at room temperature. For zymography a modification of the procedure of Horie et al. (Horie et al. 1984) was adopted. Polyacrylamide gel elctrophoresis in the presence of sodium dodecyl sulphate (SDS-PAGE) was carried out according to Laemmli in 12.5% gels with 1% co-polymerized heat-denatured casein. […]

plantar stratum corneum [4] = details: cited from earlier work
[5] = target: T2, recombinant human stratum corneum chymotryptic enzyme (rSCCE), SEQ ID NO:2 (Homo sapiens, UniProt P49862); test: S-2586 hydrolysing activity of recombinant SCCE with inhibitors; type: biochemical; details: no inhibitor = 100
T2 construct: made in house; host or cells: murine C127 cells (ATCC CRL 1616), vector pS507
Protocol: (§1) Incubations were performed at 37° C. in microtiter plates. The total incubation volume was 135 μl. Each incubation mixture contained Tris-HCl pH 8.0 (final concentration 0.08 M), KCl (final concentration 0.2 M), 100 μl substrate solution, 25 μl enzyme source (appropriately diluted in 0.1 M Tris-HCl pH 8.0, 1.0 M KCl) and 10 μl inhibitor solution.
(§2) In FIG. 9, A-C, MeO-Suc-Arg-Pro-Tyr-pNA (S-2586, initial concentration 1.2 mM) was used as substrate. In D the initial concentration of both substrates was 1.2 mM.
The experimental design was as outlined in Example 3.2.

[6] = target: T3, native stratum corneum chymotryptic enzyme (SCCE), KCl-extract of dissociated plantar corneocytes (Homo sapiens, UniProt P49862); test: Proteinase assay with chromogenic substrate S-2586, native SCCE; type: biochemical; details: S-2586 1.2 mM, pH 8.0, FIG. 9B
T3 construct: from tissue; host or cells: human plantar stratum corneum, dissociated corneocytes (suspended cells, SDS-extract or KCl-extract)
Protocol: (§3) Stock solution of MeO-Suc-Arg-Pro-Tyr-pNA (S-2586) was prepared in distilled water, of Suc-Ala-Ala-Pro-Phe-pNA (SEQ ID NO:11) (Boehringer, Mannheim, Germany) in 1-methyl-2-pyrrolidone (final concentration of solvent in incubation mixtures 4%) and of chymostatin in dimethyl sulphoxide (final concentration of solvent in incubation mixtures 1%). Cathepsin G from purulent human sputum was obtained from E. Lotti, Geneva, Switzerland. The source of SCCE was KCl-extract of dissociated plantar corneocytes prepared as described above.
as §1, §2

[7] = tested on: desmoglein I (DG I) in plantar stratum corneum; test: Degradation of desmoglein I (DG I) in plantar stratum corneum during cell shedding in vitro (immunoblot); type: cell-based, human; details: inhibitor 330 μM; 24 hours
Protocol: The fate of desmoglein I (DG I) during cell shedding in vitro from plantar stratum corneum was studied. Plantar stratum corneum was incubated as described above in 1.1, and still cohesive tissue was separated from dissociated cells. Cells and tissue were extracted in a buffer containing 0.1 M Tris-HCl pH 9, 9 M urea, 2% sodium dodecylsulphate, 1% mercaptoethanol, 1 ml buffer per 20 mg of tissue, for 15 hours at 37° C. The extracts were prepared for polyacrylamide gel electrophoresis in 7.5% gels in the presence of sodium dodecyl sulphate (SDS-PAGE) according to Laemmli (Laemmli, 1970), followed by electrophoretic transfer (Towbin et al., 1979) to a nitrocellulose membrane (Bio-Rad, Richmond, Calif.) which was probed with a rabbit polyclonal antiserum prepared against DG I purified from bovine muzzles (Gorbsky et al. 1985). Bound antibodies were detected with alkaline phosphatase conjugated goat anti-rabbit immunoglobulins (Bio-Rad, Richmond, Calif.) (Blake et al. 1984).
SDS-PAGE and immunoblotting was performed as described above. Densitometric scannings of the immunblots were carried out in a Shimadzu CS-9000 flying spot scanner (Shimadzu, Kyoto, Japan) with reflected light at 560 nm in the zigzag mode.

[8] = target: T4, human cathepsin G (from purulent human sputum) (Homo sapiens, UniProt P08311); test: Proteinase assay with chromogenic substrate S-2586, human cathepsin G; type: biochemical; details: S-2586 1.2 mM; pH 8.0; 37° C.; FIG. 9B
T4 construct: Cathepsin G from purulent human sputum; tissue E. Lotti, Geneva, Switzerland; host or cells: purulent human sputum
T4 sequence (P08311 21-244 limits assumed): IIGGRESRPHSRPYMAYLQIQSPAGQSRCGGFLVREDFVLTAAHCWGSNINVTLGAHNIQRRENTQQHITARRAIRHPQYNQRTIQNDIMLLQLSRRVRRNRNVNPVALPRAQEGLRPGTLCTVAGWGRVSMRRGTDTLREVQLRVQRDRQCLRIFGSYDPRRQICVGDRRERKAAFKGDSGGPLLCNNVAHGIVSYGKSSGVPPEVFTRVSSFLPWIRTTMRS
Protocol: as §3, §1, §2

bovine chymotrypsin = bovine chymotrypsin (Bos taurus, UniProt P00766); test: Proteinase assay with chromogenic substrate S-2586, bovine chymotrypsin; type: biochemical; details: S-2586 1.2 mM; pH 8.0; 37° C.; FIG. 9B
Protocol: as §3, §1, §2

[9] = pH 8, read-out: Activity (%) (±SD, n = 3), hydrolysis of S-2586

T1 sequence (P49862 30-253): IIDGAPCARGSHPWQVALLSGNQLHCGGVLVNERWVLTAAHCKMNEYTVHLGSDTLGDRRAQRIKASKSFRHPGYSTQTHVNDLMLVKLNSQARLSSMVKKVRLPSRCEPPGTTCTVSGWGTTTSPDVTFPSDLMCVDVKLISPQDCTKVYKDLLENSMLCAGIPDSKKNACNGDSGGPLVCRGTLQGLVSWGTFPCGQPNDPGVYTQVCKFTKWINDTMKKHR
T2 sequence (P49862 30-253): as above
Sequence of proteinase associated with plantar stratum corneum cells (native human stratum corneum chymotryptic enzyme, SCCE) (P49862 30-253): as above
T3 sequence (P49862 30-253): as above

**Q.** For `O=C(O)CN(CCN(CC(=O)O)CC(=O)O)CC(=O)O` [EDTA], which activity at 4200 µM [1, 9] is on record?
**A.** Its activity at 4200 µM is 109 ± 1%.

**Q.** Which inhibition at 1000 µM (plantar stratum corneum [2]; iodoacetamide 1 × 10^-3 mol/l) does the source give for `NC(=O)CI` [Iodoacetamide, iodoacetamide] here?
**A.** The inhibition at 1000 µM was 6 ± 13%.

**Q.** Which “Inhibition of caseinolytic activity (zymography)” value ([3]; leupeptin 160 μM) does the source give for `CC(=O)N[C@@H](CC(C)C)C(=O)N[C@@H](CC(C)C)C(=O)N[C@H](C=O)CCCNC(=N)N` [Leupeptin, leupeptin] here?
**A.** Its value is “not by leupeptin”.

**Q.** What about the activity at 325 µM [1, 9] of the same compound?
**A.** The activity at 325 µM was 93 ± 3%.

**Q.** And the “Effect on the in vitro cell shedding” value (plantar stratum corneum [4])?
**A.** Its value is “no effect”.

**Q.** Which “Activity (%) (±SD, n = 3), hydrolysis of S-2586” value ([1]; PMSF 1 mM, preincubated 1 hour at room temperature) does the source give for `O=S(=O)(F)Cc1ccccc1` [PMSF, phenylmethylsulphonyl fluoride] here?
**A.** Its value is 8 ± 3%.

**Q.** With `CC(C)CC(=O)N[C@H](C(=O)N[C@H](C(=O)N[C@@H](CC(C)C)[C@@H](O)CC(=O)N[C@@H](C)C(=O)N[C@@H](CC(C)C)[C@@H](O)CC(=O)O)C(C)C)C(C)C` [Pepstatin, pepstatin] (Isovaleryl-VV[Sta]A[Sta]-OH) as the compound, how does the inhibition at 100 µM (plantar stratum corneum [2]; pepstatin 1 × 10^-4 mol/l) read?
**A.** The inhibition at 100 µM was 8 ± 4%.

**Q.** Which results are given for chymostatin?
**A.** Activity (%), S-2586 hydrolysing activity ([5]; chymostatin 0.64 μM): 74.9%; Activity (%), S-2586 hydrolysing activity ([5]; chymostatin 2.56 μM): 33%; Activity (%), S-2586 hydrolysing activity ([5]; chymostatin 41 μM): 1.9%; Inhibition of caseinolytic activity (zymography) ([3]; chymostatin 40 μM): could be inhibited; Inhibition of S-2586 hydrolysis ([6]; 37° C.): caused inhibition; Inhibitor concentration that caused 50% inhibition, SCCE compared with chymotrypsin and cathepsin G [6]: more than three orders of magnitude higher; Inhibition of the transformation of anti-DG I positive components from 160 kD to 95 and 80 kD [7]: inhibition; Inhibition of S-2586 hydrolysis [8]: caused inhibition; Inhibition of S-2586 hydrolysis (bovine chymotrypsin): caused inhibition; Activity (%) (±SD, n = 3), hydrolysis of S-2586 ([1]; chymostatin 11 μM, 5% DMSO): 66 ± 9%; Activity (%) (±SD, n = 3), hydrolysis of S-2586 ([1]; chymostatin 55 μM, 5% DMSO): 32 ± 0%; Activity (%) (±SD, n = 3), hydrolysis of S-2586 ([1]; chymostatin 275 μM, 5% DMSO): 15 ± 3%; Inhibition of the first step of cell shedding in vitro (plantar stratum corneum [4]; first step, takes place with or without EDTA): could be inhibited; Inhibition of the second step of cell shedding in vitro (plantar stratum corneum [4]; second step, only in the presence of EDTA): could be inhibited
